Test results: US20070219346A1, “Glucose sensor and uses thereof” (McGill University, priority 2002, published 2007)
Entries after “also recorded” stand apart in the source; their conditions may differ.

Experiments:
[1] = Enzymatic activity of glucokinase immobilized on solid supports or electrode surfaces; format: biochemical, human; conditions: for glucokinase activity while immobilized: on glutathione or Ni2+-containing supports
Experimental: The enzymatic activity of the wild-type GST and His-tagged glucokinases was measured while the proteins were immobilized on glutathione or Ni^2+-containing supports, respectively.
This was not a complete surprise, as the final coupling requires free amino groups of the protein. Most likely there are a significant number of such groups involved, but in the process of participating in the coupling, enzyme function is destroyed.
Each step was analyzed by bioimpedance measurements. First, nitrilotriacetic acid (NTA) ligand (FIG. 9A) was coupled to SP electrode surface using 1-ethyl-3-(3-dimethylaminopropyl)-carbodiimide (EDC) activation (FIG. 9B). Electrodes were then loaded with Ni^2+ cations. Wild-type His-GLK (1 μg) was then avidly coupled to the electrode surface, again corroborated by impedance measurements (FIG. 9C). These prepared electrodes were subsequently used as glucose biosensors.

[2] = Glucokinase activity of purified tagged glucokinases, coupled glucose 6-P dehydrogenase/NADPH assay; format: biochemical, human
Experimental: Glucokinase activity was assayed as described previously [Storer, A. C., et al., Biochem. J. 141:205-209 (1974)] with the following modifications. Reactions were carried out at 25° C. in 50 nM glycylglycinate buffer, pH 7.8, containing 1 mM NADP, 100 mM KCl, 5 mM MgCl2, 1 unit of glucose 6-P dehydrogenase, 100 mM glucose, 5 mM ATP, and glucokinase in a total volume of 1 ml. All reaction mixtures were incubated at 25° C.
Production of NADPH was followed by the increase in absorbance at 340 nm using a spectrophotometer. Glucokinase activity may then be calculated using the following formula: Activity (units/ml)=(Δ OD/min)/0.15×dilution factor
A unit of activity is the amount of glucokinase which transforms, under optimal conditions, 1 μmole of substrate/min at room temperature.
The glucokinase activity of the purified glucokinases was assayed as above.

[3] = Intrinsic fluorescence spectroscopy of His-tagged glucokinase in solution; format: binding, human; conditions: 100 mM glucose, excitation 280 nm
Experimental: FIG. 7 depicts fluorescence spectroscopy analysis of His-tagged glucokinase. The intrinsic fluorescence intensity spectrum of His-tagged wild-type glucokinase was measured following excitation at 280 nm. The baseline spectrum of His-tagged glucokinase alone is shown (His-GLK, thin dashed line).
Intrinsic fluorescence experiments with glucokinase were performed to document and verify glucose-induced conformational changes, which is an absolute requirement for impedance biosensing to be successful. Purified wild-type N-terminal His-tagged glucokinase (10 μg) with enzyme specific activity of ≅200 U/mg was used in a 10×10 mm^2 cuvette. After the addition of 100 mM glucose, intrinsic fluorescence spectroscopy was performed (excitation wavelength 280 nm; maximum fluorescence 312 nm). There is a 20-25% increase in maximal intrinsic fluorescence at 312 nm with the addition of 100 mM glucose, reflective of conformational changes in the His-tagged glucokinase (FIG. 7). This is similar to native wild-type glucokinase [Xu L Z, Zhang W, Weber I T, Harrison R W, Pilkis S J. 1994. Site-directed mutagenesis studies on the determinants of sugar specificity and cooperative behavior of human beta-cell glucokinase. J Biol Chem 269:27458-27465; and Xu L Z, Weber I T, Harrison R W, Gidh-Jain M, Pilkis S J. 1995. […]

[4] = Intrinsic fluorescence spectroscopy of His-tagged glucokinase immobilized on Ni-NTA agarose; format: binding, human; conditions: for change of maximal intrinsic fluorescence in presence of glucose, immobilized protein: 100 mM glucose, Ni-NTA agarose bound
Experimental: FIG. 8 depicts fluorescence spectroscopy analysis of His-tagged glucokinase immobilized on Ni-NTA agarose (QIAGEN). The intrinsic fluorescence intensity spectra were measured in the absence and presence of 100 mM glucose following excitation at 280 nm. The baseline spectrum of immobilized His-tagged glucokinase alone is shown (Ni-NTA-His-GLK, thin line).
Intrinsic fluorescence experiments were performed on purified immobilized wild-type N-terminal His-tagged glucokinase (FIG. 8). […] Next, immobilized His-GLK that had been previously incubated with glucose was washed with glucose-free buffer. […] When the washed Ni^2+-bound His-GLK was incubated with glucose, again an upward shift in the fluorescence intensity occurred, indicative of a recurring conformational change in the protein.

[5] = Impedance biosensing with His-GLK immobilized on Ni2+-NTA screen-printed electrodes; design: species or system human; conditions: 100 mM glucose, Ni2+-NTA screen-printed electrode
Experimental: FIG. 9 depicts A) Immobilized-metal affinity chromatography (IMAC). Adjacent histidine residues in His-tagged proteins interact with the Ni^2+-NTA matrix. B-D) Typical Nyquist diagrams obtained for different electrode surface conditions. The imaginary (Zi) and real (Zr) complex impedence elements were calculated by computer following impedence measurements. B) Modification of screen-printed electrode (SPE) with NTA ligand. Nitrilotriacetic acid (NTA) ligand was coupled to the bare SPE electrode surface using 1-ethyl-3-(3-dimethylaminopropyl)-carbodiimide (EDC) activation. C) Immobilization of glucokinase. The SPE was loaded with Ni^2+ cations (Ni2+) and His-tagged wild-type glucokinase (GLK) immobilized on the surface. D) Detection of glucose.
To establish the use of modified re-engineered glucokinase molecules as potential mediators of glucose recognition, experiments were performed using impedance biosensing technology. The initial objectives were to covalently immobilize wild-type glucokinase on two potential electrode substrates: silicon (Si; industry standard), and screen-printed graphite (SP) electrodes [Marquette, C. A. et al., Anal. Chem., 78:959-964 (2006)]. Impedance measurements were used to monitor the changes of glucokinase in the presence of glucose. […]
Each step was analyzed by bioimpedance measurements. […]

Substance	enzyme activity after covalent coupling to electrode surface ([1]; nitrobenzenediazoniun/glutaraldehyde coupling)	glucokinase enzymatic activity ([2]; purified affinity-tagged protein, 100 mM glucose, 5 mM ATP, 25° C.)	enzyme specific activity ([2]; purified wild-type N-terminal His-tagged glucokinase) [U/mg]	increase in maximal intrinsic fluorescence at 312 nm [3]	change of maximum intrinsic fluorescence intensity on glucose addition ([3]; in solution)	change of maximal intrinsic fluorescence in presence of glucose, immobilized protein [4]	change of maximal intrinsic fluorescence in presence of glucose, immobilized protein ([4]; listed as Ni-NTA-His-GLK)	reversibility of glucose binding ([4]; immobilized, washed with glucose-free buffer)	glucokinase activity while immobilized [1]	glucokinase activity while immobilized ([1]; listed as His-tagged glucokinase)	impedance change in the presence of glucose [5]	impedance change in the presence of glucose ([5]; listed as His-tagged GLK)
glucokinase: human wild-type glucokinase, hexokinase family enzyme binding D-glucose	total loss of enzyme activity											
His-GLK: wild-type human liver glucokinase with N-terminal polyhistidine tag, expressed from pET-15b in E. coli		expected enzymatic activity; also recorded: significant glucokinase enzymatic activity	~200	20-25%	increase in the maximum fluorescence intensity	increase in the maximal intrinsic fluorescence	maximum fluorescence intensity increased	reversible	retained glucokinase activity	retained full enzymatic activity	significant impedance changes	significant shift to the left in the curve
